Legend:
Settings in all cases: 72 h
BV-173 = tested on: BV-173
Procedure, shortened: (§1)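 Fifteen myeloid leukaemia cell lines were seeded in RPMI 1640 at a density titrated to the linear growth range. Each line went into 384-well plates with compounds acoustically pre-printed at five tenfold doses from 1 to 10,000 nM, in duplicate, and was incubated for 72 h at 37 °C with 5% CO2. Luminescent ATP viability was normalised to vehicle and to a positive control at 10 µM. The IC50 came from four-parameter log-logistic dose–response fits.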

HEL = tested on: HEL
Procedure, shortened: as §1

HL-60 = tested on: HL-60
Procedure, shortened: as §1

K-562 = tested on: K-562
Procedure, shortened: as §1

KCL-22 = tested on: KCL-22
Procedure, shortened: as §1

KG-1 = tested on: KG-1
Procedure, shortened: as §1

KU-812 = tested on: KU-812
Procedure, shortened: as §1

LAMA-84 = tested on: LAMA-84
Procedure, shortened: as §1

ML-2 = tested on: ML-2
Procedure, shortened: as §1

MOLM-13 [1] = tested on: MOLM-13
Procedure, shortened: as §1

MV4-11 = tested on: MV4-11
Procedure, shortened: as §1

Mono-Mac-6 = tested on: Mono-Mac-6
Procedure, shortened: as §1

NOMO-1 = tested on: NOMO-1
Procedure, shortened: as §1

SHI-1 = tested on: SHI-1
Procedure, shortened: as §1

THP-1 = tested on: THP-1
Procedure, shortened: as §1

MOLM-13 [2] = test: cell viability (% survival relative to DMSO control, bortezomib = 0%); higher = less cytotoxic
Procedure, shortened: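 Percent survival figures are means of duplicate wells. They were obtained by CellTiter-Glo luminescence after 10 AML and 5 CML cell lines spent 72 h at 37 °C with 5% CO2 in 384-well plates with compounds at 1, 10, 100, 1000 or 10000 nM. Vehicle was set to 100% and a 10 µM positive control to 0%.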

| SMILES | IC50 (cell viability) (BV-173) [µM] | IC50 (cell viability) (HEL) [µM] | IC50 (cell viability) (HL-60) [µM] | IC50 (cell viability) (K-562) [µM] | IC50 (cell viability) (KCL-22) [µM] | IC50 (cell viability) (KG-1) [µM] | IC50 (cell viability) (KU-812) [µM] | IC50 (cell viability) (LAMA-84) [µM] | IC50 (cell viability) (ML-2) [µM] | IC50 (cell viability) (MOLM-13 [1]) [µM] | IC50 (cell viability) (MV4-11) [µM] | IC50 (cell viability) (Mono-Mac-6) [µM] | IC50 (cell viability) (NOMO-1) [µM] | IC50 (cell viability) (SHI-1) [µM] | IC50 (cell viability) (THP-1) [µM] | cell viability (MOLM-13 [2]; 1 nM) [%] | cell viability (MOLM-13 [2]; 10 nM) [%] | cell viability (MOLM-13 [2]; 100 nM) [%] | cell viability (MOLM-13 [2]; 1000 nM) [%] | cell viability (MOLM-13 [2]; 10000 nM) [%] |
| --- | --- | --- | --- | --- | --- | --- | --- | --- | --- | --- | --- | --- | --- | --- | --- | --- | --- | --- | --- | --- |
| Nc1ccn([C@@H]2O[C@H](CO)[C@@H](O)[C@@H]2O)c(=O)n1 [Cytarabine] | 0.00472 | 0.0478 | 0.43 | 0.092 | 0.0389 | 0.116 | 0.034 | 0.0585 | 0.0681 | 0.0806 | 0.566 | 0.364 | 2.29 | 0.135 | 4.77 | 112 | 86.4 | 45.7 | 4.2 | 0.262 |
| NC(=O)c1ncn([C@@H]2O[C@H](CO)[C@@H](O)[C@H]2O)n1 [Ribavirin] | > 10 | > 10 | > 10 | > 10 | > 10 | > 10 | > 10 | > 10 | > 10 | > 10 | > 10 | > 10 | > 10 | > 10 | > 10 | 87.6 | 88 | 84.1 | 129 | 62.9 |
| Oc1cc(Cl)ccc1Oc1ccc(Cl)cc1Cl [Triclosan] | > 10 | > 10 | > 10 | > 10 | > 10 | > 10 | > 10 | > 10 | > 10 | > 10 | > 10 | > 10 | > 10 | > 10 | > 10 | 102 | 90.9 | 103 | 86.7 | 109 |
| O=C1Oc2ccccc2C(=O)C1CC1C(=O)Oc2ccccc2C1=O (stereo not given) [Dicumarol] | > 10 | > 10 | > 10 | > 10 | > 10 | > 10 | > 10 | > 10 | > 10 | > 10 | > 10 | > 10 | > 10 | > 10 | > 10 | 105 | 109 | 107 | 120 | 97.1 |
| CC(C)Cc1sc(N)nc1-c1ccc(P(=O)(O)O)o1 | > 10 | > 10 | > 10 | > 10 | > 10 | > 10 | > 10 | > 10 | > 10 | > 10 | > 10 | > 10 | > 10 | > 10 | > 10 | 134 | 97 | 102 | 113 | 104 |
| CN(C)c1nc(O)c2[nH]cnc2n1 [2-Dimethylamino-6-hydroxypurine] | > 10 | > 10 | > 10 | > 10 | > 10 | > 10 | > 10 | > 10 | > 10 | > 10 | > 10 | > 10 | > 10 | > 10 | > 10 | 96.1 | 65.7 | 104 | 91 | 66.9 |
| COc1c(C)c2c(c(O)c1C/C=C(\C)CCC(=O)O)C(=O)OC2 [Mycophenolic acid] | 0.679 | 1.01 | 0.652 | 0.561 | 0.289 | 2.34 | 0.954 | 0.771 | 0.333 | 0.183 | 0.507 | 1.83 | 2.55 | 2.52 | > 10 | 109 | 109 | 70.9 | 13 | 2.42 |
| O=C(O)C(Cl)Cl [Dichloroacetate] | > 10 | > 10 | > 10 | > 10 | > 10 | > 10 | > 10 | > 10 | > 10 | > 10 | > 10 | > 10 | > 10 | > 10 | > 10 | 95.9 | 99.5 | 97.7 | 89.4 | 102 |
| O=C(O)c1cc2sccc2[nH]1 [4H-thieno[3,2-b]pyrrole-5-carboxylic acid] | > 10 | > 10 | > 10 | > 10 | > 10 | > 10 | > 10 | > 10 | > 10 | > 10 | > 10 | > 10 | > 10 | > 10 | > 10 | 103 | 94.7 | 89.3 | 112 | 109 |
| CCOc1ccc(Cc2cc([C@@H]3O[C@H](CO)[C@@H](O)[C@H](O)[C@H]3O)ccc2Cl)cc1 [Dapagliflozin] | > 10 | > 10 | > 10 | > 10 | > 10 | > 10 | > 10 | > 10 | > 10 | > 10 | > 10 | > 10 | > 10 | > 10 | > 10 | 92.8 | 111 | 91.1 | 103 | 121 |
| CCN(CC)CCN(Cc1ccc(-c2ccc(C(F)(F)F)cc2)cc1)C(=O)Cn1c(SCc2ccc(F)cc2)nc(=O)c2c1CCC2 [Darapladib] | 2.15 | 2.63 | 2.07 | 1.64 | 2.32 | 2.42 | 1.98 | 2.23 | 2.62 | 2.15 | 3.36 | 2.9 | 2.82 | 2.59 | 2.94 | 123 | 94.6 | 88.2 | 83.8 | -0.315 |
| Nc1ncnc2c1ncn2[C@@H]1O[C@H](CSCC[C@H](N)C(=O)O)[C@@H](O)[C@H]1O [S-Adenosyl Homocysteine] | > 10 | > 10 | > 10 | > 10 | > 10 | > 10 | > 10 | > 10 | > 10 | > 10 | > 10 | > 10 | > 10 | > 10 | > 10 | 100 | 130 | 114 | 115 | 125 |
